Reference: ChEMBL document CHEMBL1201862, “PubChem BioAssay data set” (2004)
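Assay format: 96-well plates, 48-hour exposure. GI50: concentration for 50% inhibition of growth.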 Activity calls are given as the source filed them. Cut-off read from the data, not from the text of the source: active = GI50 up to about 1.1 µM and inactive = higher.

Assays:
Test in all cases: DTP human tumour cell line panel, 48 h
[1] = system: 786-0
[2] = system: ACHN
[3] = system: CAKI-1
[4] = system: COLO 205
[5] = system: HL-60
[6] = system: HT-29
[7] = system: IGROV-1
[8] = system: KM12
[9] = system: MDA-N
[10] = system: MOLT-4
[11] = system: NCI-H226
[12] = system: SF-295
[13] = system: SF-539
[14] = system: SK-MEL-28
[15] = system: SK-MEL-2
[16] = system: SK-MEL-5
[17] = system: SK-OV-3
[18] = system: SN12C
[19] = system: SW-620
[20] = system: UACC-62

Compound	GI50 [1]	GI50 [2]	GI50 [3]	GI50 [4]	GI50 [5]	GI50 [6]	GI50 [7]	GI50 [8]	GI50 [9]	GI50 [10]	GI50 [11]	GI50 [12]	GI50 [13]	GI50 [14]	GI50 [15]	GI50 [16]	GI50 [17]	GI50 [18]	GI50 [19]	GI50 [20]
NS(=O)(=O)OCCCCCCCOS(N)(=O)=O	144 µM (inactive)	64.9 µM (inactive)	84.3 µM (inactive)	394 µM (inactive)	33 µM (inactive)	504 µM (inactive)	376 µM (inactive)	379 µM (inactive)	392 µM (inactive)	24.2 µM (inactive)	292 µM (inactive)	> 92.9 µM (inactive)	138 µM (inactive)	535 µM (inactive)	364 µM (inactive)	319 µM (inactive)	471 µM (inactive)	133 µM (inactive)	334 µM (inactive)	61.4 µM (inactive)
C=C1CC2(CCOc3ccc(Cl)cc32)OC1=O (stereo not given)	2.15 µM (inactive)	4.86 µM (inactive)	2.33 µM (inactive)	1.64 µM (inactive)	1.93 µM (inactive)	5.86 µM (inactive)	8.57 µM (inactive)	13.7 µM (inactive)	3.53 µM (inactive)	0.805 µM (active)	2.81 µM (inactive)	7.24 µM (inactive)	0.284 µM (active)	8.38 µM (inactive)	1.86 µM (inactive)	5.02 µM (inactive)	13.1 µM (inactive)	7.69 µM (inactive)	1.26 µM (inactive)	13.1 µM (inactive)
Cc1nc2ccccc2n1Cc1ccc(NC(=S)NC2CCCCC2)cc1	36.9 µM (inactive)	4.49 µM (inactive)	38 µM (inactive)	31.1 µM (inactive)	25.6 µM (inactive)	30.3 µM (inactive)	20 µM (inactive)	24.3 µM (inactive)	5.79 µM (inactive)	5.36 µM (inactive)	24.9 µM (inactive)	10.1 µM (inactive)	> 72.3 µM (inactive)	29.7 µM (inactive)	15.7 µM (inactive)	4.14 µM (inactive)	> 92.7 µM (inactive)	7.03 µM (inactive)	41.3 µM (inactive)	6.3 µM (inactive)
O=c1c2cccnc2[nH]c2ccc3[nH]ncc3c12	> 10 µM (inactive)	5.13 µM (inactive)	7.45 µM (inactive)	> 10 µM (inactive)	> 10 µM (inactive)	> 10 µM (inactive)	6.11 µM (inactive)	5.45 µM (inactive)	> 10 µM (inactive)	> 10 µM (inactive)	> 10 µM (inactive)	> 10 µM (inactive)	> 10 µM (inactive)	> 10 µM (inactive)	> 10 µM (inactive)	> 10 µM (inactive)	> 10 µM (inactive)	> 10 µM (inactive)	> 10 µM (inactive)	> 10 µM (inactive)
Cn1c(=O)c2sc3cc4c(cc3c2c2ccccc21)sc1c(=O)n(C)c2ccccc2c14	31.8 µM (inactive)	19.2 µM (inactive)	> 100 µM (inactive)	> 100 µM (inactive)	> 100 µM (inactive)	> 100 µM (inactive)	65.9 µM (inactive)	> 100 µM (inactive)	> 100 µM (inactive)	78.2 µM (inactive)	> 100 µM (inactive)	15.2 µM (inactive)	76 µM (inactive)	> 100 µM (inactive)	> 100 µM (inactive)	> 100 µM (inactive)	> 100 µM (inactive)	> 100 µM (inactive)	> 100 µM (inactive)	> 100 µM (inactive)
Oc1ccc(SCc2ccc(NCc3ccccc3)cc2)cc1	0.869 µM (active)	24 µM (inactive)	19.6 µM (inactive)	35.4 µM (inactive)	14.6 µM (inactive)	20 µM (inactive)	45.5 µM (inactive)	29.2 µM (inactive)	24.5 µM (inactive)	11.4 µM (inactive)	98.2 µM (inactive)	22.3 µM (inactive)	36.6 µM (inactive)	63.8 µM (inactive)	21.7 µM (inactive)	20.7 µM (inactive)	62.8 µM (inactive)	24.5 µM (inactive)	36.4 µM (inactive)	23.4 µM (inactive)
O=C1C=CC=C/C1=C1\N=C(c2ccccc2OCC(=O)c2ccc(Br)cc2)SS1	31.5 µM (inactive)	62.7 µM (inactive)	34.6 µM (inactive)	> 100 µM (inactive)	> 100 µM (inactive)	> 100 µM (inactive)	9.23 µM (inactive)	> 100 µM (inactive)	> 100 µM (inactive)	> 10 µM (inactive)	48 µM (inactive)	28.2 µM (inactive)	24.4 µM (inactive)	> 100 µM (inactive)	42.5 µM (inactive)	> 100 µM (inactive)	34.3 µM (inactive)	> 100 µM (inactive)	> 100 µM (inactive)	23.1 µM (inactive)
NC(CSC1c2ccccc2-c2ccccc21)C(=O)O (stereo not given)	> 100 µM (inactive)	> 100 µM (inactive)	> 100 µM (inactive)	> 100 µM (inactive)	> 100 µM (inactive)	> 100 µM (inactive)	> 100 µM (inactive)	> 100 µM (inactive)	> 100 µM (inactive)	> 100 µM (inactive)	> 100 µM (inactive)	> 100 µM (inactive)	> 100 µM (inactive)	> 100 µM (inactive)	> 100 µM (inactive)	> 100 µM (inactive)	> 100 µM (inactive)	> 100 µM (inactive)	> 100 µM (inactive)	> 100 µM (inactive)
CCCCCCCCCCCCCCNC(=O)CCC(NC(=O)c1ccc(N(C)Cc2cnc3nc(N)nc(N)c3n2)cc1)C(=O)NCCCCCCCCCCCCCC (stereo not given)	1.28 µM (inactive)	6.38 µM (inactive)	10.4 µM (inactive)	11.8 µM (inactive)	0.355 µM (active)	4.13 µM (inactive)	7.14 µM (inactive)	2.45 µM (inactive)	0.244 µM (active)	0.982 µM (active)	> 52.1 µM (inactive)	7.19 µM (inactive)	0.908 µM (active)	13.8 µM (inactive)	31 µM (inactive)	1.77 µM (inactive)	10.4 µM (inactive)	9.68 µM (inactive)	0.288 µM (active)	2.63 µM (inactive)
Cc1c(CCCl)c(=O)n2c([nH]c3ccccc32)c1C#N	1.51 µM (inactive)	1.43 µM (inactive)	1.46 µM (inactive)	0.148 µM (active)	1.55 µM (inactive)	1.6 µM (inactive)	1.77 µM (inactive)	1.75 µM (inactive)	1.61 µM (inactive)	0.237 µM (active)	2.02 µM (inactive)	1.66 µM (inactive)	1.48 µM (inactive)	1.87 µM (inactive)	2.79 µM (inactive)	1.42 µM (inactive)	2.1 µM (inactive)	1.36 µM (inactive)	0.973 µM (active)	1.34 µM (inactive)
C=CC(=O)N1C/C(=C\c2ccc(F)cc2)C(=O)/C(=C/c2ccc(F)cc2)C1	0.222 µM (active)	0.259 µM (active)	0.475 µM (active)	0.391 µM (active)	0.728 µM (active)	0.071 µM (active)	0.437 µM (active)	0.193 µM (active)	0.157 µM (active)	0.207 µM (active)	0.352 µM (active)	0.44 µM (active)	0.214 µM (active)	0.634 µM (active)	0.843 µM (active)	0.811 µM (active)	0.711 µM (active)	0.454 µM (active)	0.162 µM (active)	0.142 µM (active)
NC1=NCCN1CC(=O)O [CYCLOCREATINE]	> 1000 µM (inactive)	> 1000 µM (inactive)	> 10000 µM (inactive)	> 1000 µM (inactive)	> 1000 µM (inactive)	> 1000 µM (inactive)	> 1000 µM (inactive)	> 10000 µM (inactive)	> 10000 µM (inactive)	> 1000 µM (inactive)	> 1000 µM (inactive)	> 10000 µM (inactive)	> 1000 µM (inactive)	> 1000 µM (inactive)	> 1000 µM (inactive)	> 1000 µM (inactive)	> 1000 µM (inactive)	> 1000 µM (inactive)	> 1000 µM (inactive)	> 1000 µM (inactive)
CC(C)=CCC/C(C)=C/CC/C(C)=C/CC/C(C)=C/CC/C(C)=C/CC/C(C)=C/CC/C(C)=C/CC/C(C)=C/CC/C(C)=C/CO [SOLANESOL]	> 100 µM (inactive)	> 100 µM (inactive)	> 100 µM (inactive)	> 100 µM (inactive)	77.4 µM (inactive)	> 100 µM (inactive)	> 100 µM (inactive)	> 100 µM (inactive)	> 100 µM (inactive)	> 100 µM (inactive)	> 100 µM (inactive)	> 100 µM (inactive)	> 100 µM (inactive)	> 100 µM (inactive)	> 100 µM (inactive)	> 100 µM (inactive)	> 100 µM (inactive)	> 100 µM (inactive)	> 100 µM (inactive)	> 100 µM (inactive)
